# Where a SMILES comes first, the peptide text is derived from it. Bridges are numbered along the chain shown (N, C = ends). [ ]: non-standard residue; d: D form. The star is where a group is joined. hPhe(3-Cl-4-CF3) = N[C@@H](CCc1ccc(C(F)(F)F)c(Cl)c1)C(=O)O; NPrPhe(4-CF3) = CCCN[C@@H](Cc1ccc(C(F)(F)F)cc1)C(=O)O; NMeGly(cPent) = CN[C@H](C(=O)O)C1CCCC1; NMeD = CN[C@@H](CC(=O)O)C(=O)O; NMeL = CN[C@@H](CC(C)C)C(=O)O; Morpholide = C1CN(*)CCO1; NMeA = CN[C@@H](C)C(=O)O; Aze = O=C(O)[C@@H]1CCN1; Ac4c = NC1(C(=O)O)CCC1; Sar = CNCC(=O)O
# Tests used:
# [1] = target: GDP-bound HRAS wild-type protein (Homo sapiens, UniProt P01112); assay: Binding to HRAS by surface plasmon resonance (SPR), Single Cycle Kinetics; details: for HRAS/KRAS (ratio of KD value for HRAS to KD value for KRAS) / HRAS/KRAS (ratio of KD value with respect to HRAS to KD value with respect to KRAS): GDP-bound HRAS wild-type vs GDP-bound KRAS wild-type
# [2] = target: GDP-bound NRAS wild-type protein (Homo sapiens, UniProt P01111); assay: Binding to NRAS by surface plasmon resonance (SPR), Single Cycle Kinetics; details: for NRAS/KRAS (ratio of KD value for NRAS to KD value for KRAS) / NRAS/KRAS (ratio of KD value with respect to NRAS to KD value with respect to KRAS): GDP-bound NRAS wild-type vs GDP-bound KRAS wild-type
# [3] = SPR, GDP-bound wild-type proteins
# GDP-bound HRAS wild-type protein, sequence (P01112 whole entry): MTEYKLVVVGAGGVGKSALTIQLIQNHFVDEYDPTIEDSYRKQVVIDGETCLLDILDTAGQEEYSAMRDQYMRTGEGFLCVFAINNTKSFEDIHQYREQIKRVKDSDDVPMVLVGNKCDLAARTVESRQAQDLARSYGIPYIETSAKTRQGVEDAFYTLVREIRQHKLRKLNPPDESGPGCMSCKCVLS
# GDP-bound NRAS wild-type protein, sequence (P01111 whole entry): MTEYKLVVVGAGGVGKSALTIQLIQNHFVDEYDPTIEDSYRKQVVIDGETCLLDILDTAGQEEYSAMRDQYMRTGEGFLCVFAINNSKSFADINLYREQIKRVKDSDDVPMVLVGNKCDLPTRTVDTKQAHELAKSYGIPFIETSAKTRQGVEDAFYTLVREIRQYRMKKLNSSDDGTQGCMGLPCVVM
compound,measurement,setting,value
CCO[C@@H]1C[C@H]2C(=O)NC3(CCC3)C(=O)N(C)[C@@H](C3CCCC3)C(=O)N(C)[C@H](C(=O)N(C)CC)CC(=O)N(C)[C@@H](CC(F)(F)F)C(=O)N[C@@H]([C@@H](C)CC)C(=O)N(C)CC(=O)N(C)[C@H]3C/C=C\CCN(C3=O)[C@@H](Cc3ccc(C(F)(F)F)cc3)C(=O)N(C)CC(=O)N[C@@H](CCc3cc(F)c(C(F)(F)F)c(F)c3)C(=O)N2C1 [PP1701],HRAS/KRAS (ratio of KD value for HRAS to KD value for KRAS),"[1]; KD ratio, SPR",A (a compound having 10 or more and less than 20 is denoted as A)
same,NRAS/KRAS (ratio of KD value for NRAS to KD value for KRAS),"[2]; KD ratio, SPR",A (a compound having 10 or more and less than 20 is denoted as A)
CCO[C@@H]1C[C@H]2C(=O)NC3(CC(C)(C)C3)C(=O)N(C)[C@@H](C(CC)CC)C(=O)N(C)[C@H](C(=O)N(C)C)CC(=O)N(C)[C@H]3CCCC/C=C/c4ccc(cc4)C[C@@H](C(=O)N(C)CC(=O)N[C@@H](CCc4ccc(Cl)c(Cl)c4)C(=O)N2C1)N1CC/C=C\C[C@@H](C1=O)N(C)C(=O)CN(C)C(=O)[C@H]([C@@H](C)CC)NC3=O [PP3045],HRAS/KRAS (ratio of KD value with respect to GDP-bound HRAS wild-type protein to KD value with respect to KRAS),[1]; [3],A (a compound having 10 or more and less than 20 is denoted as A)
same,NRAS/KRAS (ratio of KD value with respect to GDP-bound NRAS wild-type protein to KD value with respect to KRAS),[2]; [3],AA (a compound having 20 or more is denoted as AA)
CC[C@H](C)[C@@H]1NC(=O)[C@H](Cc2cccc(F)c2)N(C)C(=O)C[C@@H](C(=O)N2CCOCC2)N(C)C(=O)[C@H](C2CCCC2)N(C)C(=O)C2(CCCC2)NC(=O)[C@@H]2CCCN2C(=O)[C@H](CCc2ccc(C(F)(F)F)c(Cl)c2)NC(=O)CN(C)C(=O)[C@H](Cc2ccc(F)cc2)N2CCCCC[C@@H](C2=O)N(C)C(=O)CN(C)C1=O [PP0962],HRAS/KRAS (ratio of KD value with respect to HRAS to KD value with respect to KRAS),"[1]; KD ratio, SPR",B (a compound having 3 or more and less than 10 is denoted as B)
same,NRAS/KRAS (ratio of KD value with respect to NRAS to KD value with respect to KRAS),"[2]; KD ratio, SPR",B (a compound having 3 or more and less than 10 is denoted as B)
CCCN1C(=O)CN(C)C(=O)CN(C)C(=O)[C@H]([C@@H](C)CC)NC(=O)[C@H](CC(C)C)N(C)C(=O)C[C@@H](C(=O)N2CCOCC2)N(C)C(=O)[C@H](C2CCCC2)N(C)C(=O)C2(CCC2)NC(=O)[C@@H]2CCCN2C(=O)[C@H](CCc2ccc(C(F)(F)F)c(Cl)c2)NC(=O)CN(C)C(=O)[C@@H]1Cc1ccc(C(F)(F)F)cc1 [PP0197] ([NMeL]I[Sar][Sar][NPrPhe(4-CF3)][Sar][hPhe(3-Cl-4-CF3)]P[Ac4c][NMeGly(cPent)][NMeD]-Morpholide; lactam N-11),HRAS/KRAS (ratio of KD for GDP-bound HRAS wild-type to KD for KRAS),[1]; SPR,C (A compound having a KD ratio of 0.1 or more and less than 3 is denoted as C)
same,NRAS/KRAS (ratio of KD for GDP-bound NRAS wild-type to KD for KRAS),[2]; SPR,B (a compound having 3 or more and less than 10 is denoted as B)
CC[C@H](C)[C@@H]1NC(=O)[C@H](CC(C)C)N(C)C(=O)C[C@@H](C(=O)N2CCOCC2)N(C)C(=O)[C@H](C2CCCC2)N(C)C(=O)C2(CCC2)NC(=O)[C@@H]2[C@@H](OC)CCN2C(=O)[C@H](CCc2cc(F)c(C(F)(F)F)c(F)c2)NC(=O)CN(C)C(=O)[C@H](Cc2ccc(C(F)(F)F)cc2)N2CCCC[C@@H](C2=O)N(C)C(=O)CN(C)C1=O [PP1075],HRAS/KRAS (ratio of KD value with respect to HRAS to KD value with respect to KRAS),"[1]; KD ratio, SPR",B (a compound having 3 or more and less than 10 is denoted as B)
same,NRAS/KRAS (ratio of KD value with respect to NRAS to KD value with respect to KRAS),"[2]; KD ratio, SPR",B (a compound having 3 or more and less than 10 is denoted as B)
C#CC[C@H]1C(=O)N[C@@H]([C@@H](C)CC)C(=O)N(C)CC(=O)N(C)[C@H]2C/C=C\CCN(C2=O)[C@@H](Cc2ccc(C(F)(F)F)cc2)C(=O)N(C)CC(=O)N[C@@H](CCc2ccc(C(F)(F)F)c(OC)c2)C(=O)N2CCOC[C@H]2C(=O)NC2(CC(C)(C)C2)C(=O)N(C)[C@@H](C2CCCC2)C(=O)N(C)[C@H](C(=O)N(C)C)CC(=O)N1C [PP2905],HRAS/KRAS (ratio of KD value with respect to GDP-bound HRAS wild-type protein to KD value with respect to KRAS),[1]; class symbols,A (a compound having 10 or more and less than 20 is denoted as A)
same,NRAS/KRAS (ratio of KD value with respect to GDP-bound NRAS wild-type protein to KD value with respect to KRAS),[2]; class symbols,AA (a compound having 20 or more is denoted as AA)
CCO[C@@H]1C[C@H]2C(=O)NC3(CC(C)(C)C3)C(=O)N(C)[C@@H](C3CCCC3)C(=O)N(C)[C@H](C(=O)N(C)C)CC(=O)N(C)[C@@H](C)C(=O)N[C@@H]([C@@H](C)CC)C(=O)N(C)CC(=O)N(C)[C@H]3C/C=C\CCN(C3=O)[C@@H](Cc3ccc(C(F)(F)F)cc3)C(=O)N(C)CC(=O)N[C@@H](CCc3ccc(C(F)(F)F)c(OC)c3)C(=O)N2C1 [PP1674],HRAS/KRAS (ratio of KD value for HRAS to KD value for KRAS),"[1]; KD ratio, SPR",A (a compound having 10 or more and less than 20 is denoted as A)
same,NRAS/KRAS (ratio of KD value for NRAS to KD value for KRAS),"[2]; KD ratio, SPR",A (a compound having 10 or more and less than 20 is denoted as A)
CCO[C@@H]1C[C@H]2C(=O)NC3(CC(C)(C)C3)C(=O)N(C)[C@@H](C(CC)CC)C(=O)N(C)[C@H](C(=O)N3CCCC3)CC(=O)N(C)[C@@H](COC)C(=O)N[C@@H]([C@@H](C)CC)C(=O)N(C)CC(=O)N(C)[C@H]3C/C=C\CCN(C3=O)[C@@H](Cc3ccc(C)cc3)C(=O)N(C)CC(=O)N[C@@H](CCc3ccc(C(F)(F)F)c(OC)c3)C(=O)N2C1 [PP2167],HRAS/KRAS (ratio of KD value with respect to HRAS to KD value with respect to KRAS),[1]; SPR,A (a compound having 10 or more and less than 20 is denoted as A)
same,NRAS/KRAS (ratio of KD value with respect to NRAS to KD value with respect to KRAS),[2]; SPR,AA (a compound having 20 or more is denoted as AA)
CC[C@H](C)[C@@H]1NC(=O)[C@H](CC(C)C)N(C)C(=O)C[C@@H](C(=O)N2CCOCC2)N(C)C(=O)[C@H](C2CCCC2)N(C)C(=O)C2(CC(F)(F)C2)NC(=O)[C@@H]2CCCN2C(=O)[C@H](CCc2cc(F)c(C(F)(F)F)c(F)c2)NC(=O)CN(C)C(=O)[C@H](Cc2ccc(C(F)(F)F)cc2)N2CCCC[C@@H](C2=O)N(C)C(=O)CN(C)C1=O [PP0562],HRAS/KRAS (ratio of KD value with respect to GDP-bound HRAS wild-type protein to KD value with respect to KRAS),[1]; SPR,B (a compound having 3 or more and less than 10 is denoted as B)
same,NRAS/KRAS (ratio of KD value with respect to GDP-bound NRAS wild-type protein to KD value with respect to KRAS),[2]; SPR,B (a compound having 3 or more and less than 10 is denoted as B)
CCCN1C(=O)[C@@H]2CCN2C(=O)[C@H](C)N(C)C(=O)[C@H]([C@@H](C)CC)NC(=O)[C@H](CC(C)C)N(C)C(=O)C[C@@H](C(=O)N2CCOCC2)N(C)C(=O)[C@H](C2CCCC2)N(C)C(=O)C2(CCC2)NC(=O)[C@@H]2CCCN2C(=O)[C@H](CCc2ccc(C(F)(F)F)c(Cl)c2)NC(=O)CN(C)C(=O)[C@@H]1Cc1ccc(C(F)(F)F)cc1 [PP0198] ([NMeL]I[NMeA][Aze][NPrPhe(4-CF3)][Sar][hPhe(3-Cl-4-CF3)]P[Ac4c][NMeGly(cPent)][NMeD]-Morpholide; lactam N-11),HRAS/KRAS (ratio of KD for GDP-bound HRAS wild-type to KD for KRAS),[1]; SPR,B (a compound having 3 or more and less than 10 is denoted as B)
same,NRAS/KRAS (ratio of KD for GDP-bound NRAS wild-type to KD for KRAS),[2]; SPR,C (A compound having a KD ratio of 0.1 or more and less than 3 is denoted as C)
CCC[C@H]1C(=O)N[C@@H]([C@@H](C)CC)C(=O)N(C)CC(=O)N(C)[C@H]2C/C=C\CCN(C2=O)[C@@H](Cc2ccc(C)cc2)C(=O)N(C)CC(=O)N[C@@H](CCc2cc(Cl)c3c(ccn3C)c2)C(=O)N2C[C@H](OCC)C[C@H]2C(=O)NC2(CC(C)(C)C2)C(=O)N(C)[C@@H](C2CCCC2)C(=O)N(C)[C@H](C(=O)N(C)C)CC(=O)N1C [PP2951],HRAS/KRAS (ratio of KD value with respect to GDP-bound HRAS wild-type protein to KD value with respect to KRAS),[1]; class symbols,A (a compound having 10 or more and less than 20 is denoted as A)
same,NRAS/KRAS (ratio of KD value with respect to GDP-bound NRAS wild-type protein to KD value with respect to KRAS),[2]; class symbols,A (a compound having 10 or more and less than 20 is denoted as A)
CCCN1C(=O)C[C@@H](C(=O)N(C)C)N(C)C(=O)[C@H](C2CCCC2)N(C)C(=O)C2(CCC2)NC(=O)[C@@H]2C[C@@H](OCC)CN2C(=O)[C@H](CCc2cc(F)c(C(F)(F)F)c(F)c2)NC(=O)CN(C)C(=O)[C@H](Cc2ccc(C(F)(F)F)cc2)N2CC/C=C\C[C@@H](C2=O)N(C)C(=O)CNC(=O)[C@H]([C@@H](C)CC)NC(=O)[C@@H]1CC(C)C [PP1826],HRAS/KRAS (ratio of KD value for HRAS to KD value for KRAS),"[1]; KD ratio, SPR",A (a compound having 10 or more and less than 20 is denoted as A)
same,NRAS/KRAS (ratio of KD value for NRAS to KD value for KRAS),"[2]; KD ratio, SPR",A (a compound having 10 or more and less than 20 is denoted as A)
CCO[C@H](C)[C@@H]1NC(=O)[C@H](CC(C)C)N(C)C(=O)C[C@@H](C(=O)N(C)CC)N(C)C(=O)[C@H](C2CCCC2)N(C)C(=O)C2(CC(C)(C)C2)NC(=O)[C@@H]2C[C@H](C)CN2C(=O)[C@H](CCc2cc(F)c(C(F)(F)F)c(F)c2)NC(=O)CN(C)C(=O)[C@H](Cc2ccc(C)cc2)N2CC/C=C\C[C@@H](C2=O)N(C)C(=O)CN(C)C1=O [PP2414],HRAS/KRAS (ratio of KD value with respect to HRAS to KD value with respect to KRAS),[1]; SPR,A (a compound having 10 or more and less than 20 is denoted as A)
same,NRAS/KRAS (ratio of KD value with respect to NRAS to KD value with respect to KRAS),[2]; SPR,A (a compound having 10 or more and less than 20 is denoted as A)
CC[C@H](C)[C@@H]1NC(=O)[C@H](CC(C)C)N(C)C(=O)C[C@@H](C(=O)N2CCOCC2)N(CC)C(=O)[C@H](C2CCCC2)N(C)C(=O)C2(CCCC2)NC(=O)[C@@H]2CCCN2C(=O)[C@H](CCc2cc(F)c(C(F)(F)F)c(F)c2)NC(=O)CN(C)C(=O)[C@H](Cc2ccc(C(F)(F)F)cc2)N2CCCCC[C@@H](C2=O)N(C)C(=O)CN(C)C1=O [PP0477],HRAS/KRAS (ratio of KD value with respect to GDP-bound HRAS wild-type protein to KD value with respect to KRAS),[1]; SPR,A (a compound having 10 or more and less than 20 is denoted as A)
same,NRAS/KRAS (ratio of KD value with respect to GDP-bound NRAS wild-type protein to KD value with respect to KRAS),[2]; SPR,A (a compound having 10 or more and less than 20 is denoted as A)
